Laboratory results published in the NIST ThermoML archive (doi:10.1021/je060203o).
± gives the expanded uncertainty stated by the source.

Conditions: Liquid; for mass density: Vibrating tube method; for speed of sound: Pulse-echo method

CCCn1cc[n+](C)c1.O=S(=O)([N-]S(=O)(=O)C(F)(F)F)C(F)(F)F
Conditions | mass density [kg/m3] | speed of sound [m/s]
298.15 K, 100 kPa | 1475.7 ± 2.5 | –
298.15 K, 500 kPa | – | 1236.4 ± 3.1
298.15 K, 1830 kPa | 1476.98 ± 2.6 | –
298.15 K, 3500 kPa | – | 1246.5 ± 3.1
298.15 K, 7000 kPa | – | 1258.2 ± 3.1
298.15 K, 10000 kPa | – | 1268 ± 3.1
298.15 K, 10020 kPa | 1483.13 ± 2.8 | –
298.15 K, 13500 kPa | – | 1279.2 ± 3.1
298.15 K, 14980 kPa | 1486.69 ± 3 | –
298.15 K, 17000 kPa | – | 1290 ± 3.1
298.15 K, 19750 kPa | 1490.06 ± 3.1 | –
298.15 K, 20000 kPa | – | 1299.2 ± 3.1
298.15 K, 25860 kPa | 1494.22 ± 3.2 | –
298.15 K, 30000 kPa | – | 1329.2 ± 3.2
298.15 K, 31480 kPa | 1497.95 ± 3.4 | –
298.15 K, 37770 kPa | 1502.01 ± 3.6 | –
298.15 K, 40000 kPa | – | 1357.5 ± 3.2
298.15 K, 44170 kPa | 1506.01 ± 3.8 | –
298.15 K, 50000 kPa | – | 1384.5 ± 3.2
298.15 K, 50750 kPa | 1509.97 ± 4 | –
298.15 K, 59590 kPa | 1515.1 ± 4.2 | –
298.15 K, 60000 kPa | – | 1410.3 ± 3.2
298.15 K, 70000 kPa | – | 1435.1 ± 3.2
298.15 K, 80000 kPa | – | 1459 ± 3.2
298.15 K, 90000 kPa | – | 1482.1 ± 3.2
298.15 K, 100000 kPa | – | 1504.5 ± 3.2
298.15 K, 112500 kPa | – | 1531.7 ± 3.2
298.15 K, 125000 kPa | – | 1557.6 ± 3.2
298.15 K, 137510 kPa | – | 1582.8 ± 3.2
298.15 K, 150000 kPa | – | 1606 ± 3.2
298.15 K, 162500 kPa | – | 1629.6 ± 3.2
298.15 K, 175000 kPa | – | 1652.5 ± 3.2
298.15 K, 187500 kPa | – | 1674.5 ± 3.2
298.15 K, 200000 kPa | – | 1695.9 ± 3.2
299.15 K, 100 kPa | 1474.62 ± 2.5 | –
299.15 K, 1830 kPa | 1475.87 ± 2.6 | –
299.15 K, 10020 kPa | 1482.12 ± 2.8 | –
299.15 K, 14980 kPa | 1485.68 ± 3 | –
299.15 K, 19750 kPa | 1489.01 ± 3.1 | –
299.15 K, 25860 kPa | 1493.18 ± 3.2 | –
299.15 K, 31480 kPa | 1496.89 ± 3.4 | –
299.15 K, 37770 kPa | 1500.95 ± 3.6 | –
299.15 K, 44170 kPa | 1504.95 ± 3.8 | –
299.15 K, 50750 kPa | 1509.07 ± 4 | –
299.15 K, 59590 kPa | 1514.22 ± 4.2 | –
300.15 K, 100 kPa | 1473.66 ± 2.5 | –
300.15 K, 1830 kPa | 1474.94 ± 2.6 | –
300.15 K, 10020 kPa | 1481.1 ± 2.8 | –
300.15 K, 14980 kPa | 1484.68 ± 2.9 | –
300.15 K, 19750 kPa | 1488.07 ± 3.1 | –
300.15 K, 25860 kPa | 1492.27 ± 3.2 | –
300.15 K, 31480 kPa | 1496.03 ± 3.4 | –
300.15 K, 37770 kPa | 1500.11 ± 3.6 | –
300.15 K, 44170 kPa | 1504.13 ± 3.8 | –
300.15 K, 50750 kPa | 1508.14 ± 4 | –
300.15 K, 59590 kPa | 1513.35 ± 4.2 | –
301.15 K, 100 kPa | 1472.79 ± 2.5 | –
301.15 K, 1830 kPa | 1474.07 ± 2.6 | –
301.15 K, 10020 kPa | 1480.19 ± 2.8 | –
301.15 K, 14980 kPa | 1483.74 ± 2.9 | –
301.15 K, 19750 kPa | 1487.1 ± 3.1 | –
301.15 K, 25860 kPa | 1491.35 ± 3.2 | –
301.15 K, 31480 kPa | 1495.08 ± 3.4 | –
301.15 K, 37770 kPa | 1499.16 ± 3.6 | –
301.15 K, 44170 kPa | 1503.18 ± 3.8 | –
301.15 K, 50750 kPa | 1507.27 ± 4 | –
301.15 K, 59590 kPa | 1512.51 ± 4.2 | –
302.15 K, 100 kPa | 1471.92 ± 2.5 | –
302.15 K, 1830 kPa | 1473.15 ± 2.6 | –
302.15 K, 10020 kPa | 1479.27 ± 2.8 | –
302.15 K, 14980 kPa | 1482.84 ± 2.9 | –
302.15 K, 19750 kPa | 1486.21 ± 3.1 | –
302.15 K, 25860 kPa | 1490.42 ± 3.2 | –
302.15 K, 31480 kPa | 1494.19 ± 3.4 | –
302.15 K, 37770 kPa | 1498.29 ± 3.6 | –
302.15 K, 44170 kPa | 1502.37 ± 3.8 | –
302.15 K, 50750 kPa | 1506.46 ± 3.9 | –
302.15 K, 59590 kPa | 1511.74 ± 4.2 | –
303.15 K, 100 kPa | 1471.14 ± 2.5 | –
303.15 K, 1830 kPa | 1472.39 ± 2.6 | –
303.15 K, 10020 kPa | 1478.49 ± 2.8 | –
303.15 K, 14980 kPa | 1482 ± 2.9 | –
303.15 K, 19750 kPa | 1485.41 ± 3.1 | –
303.15 K, 25860 kPa | 1489.57 ± 3.2 | –
303.15 K, 31480 kPa | 1493.32 ± 3.4 | –
303.15 K, 37770 kPa | 1497.43 ± 3.6 | –
303.15 K, 44170 kPa | 1501.5 ± 3.8 | –
303.15 K, 50750 kPa | 1505.6 ± 3.9 | –
303.15 K, 59590 kPa | 1510.93 ± 4.2 | –
308.15 K, 100 kPa | 1466.83 ± 2.5 | –
308.15 K, 500 kPa | – | 1214 ± 3.1
308.15 K, 1830 kPa | 1468.1 ± 2.6 | –
308.15 K, 3500 kPa | – | 1224.4 ± 3.1
308.15 K, 7000 kPa | – | 1236.2 ± 3.1
308.15 K, 10000 kPa | – | 1246.2 ± 3.1
308.15 K, 10020 kPa | 1474.12 ± 2.8 | –
308.15 K, 13500 kPa | – | 1257.6 ± 3.1
308.15 K, 14980 kPa | 1477.65 ± 2.9 | –
308.15 K, 17000 kPa | – | 1268.6 ± 3.1
308.15 K, 19750 kPa | 1480.89 ± 3 | –
308.15 K, 20000 kPa | – | 1278 ± 3.1
308.15 K, 25860 kPa | 1485.18 ± 3.2 | –
308.15 K, 30000 kPa | – | 1308.6 ± 3.2
308.15 K, 31480 kPa | 1489 ± 3.4 | –
308.15 K, 37770 kPa | 1493.05 ± 3.5 | –
308.15 K, 40000 kPa | – | 1337.1 ± 3.2
308.15 K, 44170 kPa | 1497.15 ± 3.7 | –
308.15 K, 50000 kPa | – | 1364.7 ± 3.2
308.15 K, 50750 kPa | 1501.36 ± 3.9 | –
308.15 K, 59590 kPa | 1506.81 ± 4.2 | –
308.15 K, 60000 kPa | – | 1391 ± 3.2
308.15 K, 70000 kPa | – | 1416.2 ± 3.2
308.15 K, 80000 kPa | – | 1440.3 ± 3.2
308.15 K, 90000 kPa | – | 1463.7 ± 3.2
308.15 K, 100000 kPa | – | 1486.4 ± 3.2
308.15 K, 112500 kPa | – | 1513.6 ± 3.2
308.15 K, 125000 kPa | – | 1539.9 ± 3.2
308.15 K, 137510 kPa | – | 1565.2 ± 3.2
308.15 K, 150000 kPa | – | 1589.6 ± 3.2
308.15 K, 162500 kPa | – | 1613.3 ± 3.2
308.15 K, 175000 kPa | – | 1636.3 ± 3.2
308.15 K, 187500 kPa | – | 1658.6 ± 3.2
308.15 K, 200000 kPa | – | 1680.4 ± 3.2
313.15 K, 100 kPa | 1462.07 ± 2.5 | –
313.15 K, 1830 kPa | 1463.28 ± 2.5 | –
313.15 K, 10020 kPa | 1469.31 ± 2.8 | –
313.15 K, 14980 kPa | 1472.86 ± 2.9 | –
313.15 K, 19750 kPa | 1476.15 ± 3 | –
313.15 K, 25860 kPa | 1480.43 ± 3.2 | –
313.15 K, 31480 kPa | 1484.36 ± 3.3 | –
313.15 K, 37770 kPa | 1488.4 ± 3.5 | –
313.15 K, 44170 kPa | 1492.56 ± 3.7 | –
313.15 K, 50750 kPa | 1496.83 ± 3.9 | –
313.15 K, 59590 kPa | 1502.49 ± 4.1 | –
318.15 K, 100 kPa | 1457.05 ± 2.5 | –
318.15 K, 500 kPa | – | 1192.3 ± 3.1
318.15 K, 1830 kPa | 1458.31 ± 2.5 | –
318.15 K, 3500 kPa | – | 1202.9 ± 3.1
318.15 K, 7000 kPa | – | 1215 ± 3.1
